This passage reports IC50 results from patent US8614215B2, “Quinoxaline inhibitors of phosphoinositide-3-kinases (PI3Ks)” (Merck Serono SA, priority 2007, dated 2013).

The test system of the assay is Human recombinant GST-PI3K. Description: PI3K induced-lipid phosphorylation, neomycin-SPA scintillation proximity assay. It is filed as biochemical. Conditions: Human recombinant GST-PI3K, SPA. An excerpt: The efficacy of compounds of the invention in inhibiting the PI3K induced-lipid phosphorylation may be tested in the following binding assay. The assay combines the scintillation proximity assay technology (SPA, Amersham) with the capacity of neomycin (a polycationic antibiotic) to bind phospholipids with high affinity and specificity. The Scintillation Proximity Assay is based on the properties of weakly emitting isotopes (such as ^3H, ^125I, ^33P). Coating SPA beads with neomycin allows the detection of phosphorylated lipid substrates after incubation with recombinant PI3K and radioactive ATP in the same well, by capturing the radioactive phospholipids to the SPA beads through their specific binding to neomycin.
To a 96 wells MTP containing 10 μL of the test compound of Formula (I) (solubilized in 10% DMSO; […]), the following assay components are added: 1) 10 μL of lipid micelles 2) 20 μL of Kinase buffer ([^33P]γATP162 μM/300 nCi, MgCl2 2.5 mM, DTT 2.5 mM, Na3VO4 25 uM in Hepes 40 mM, pH 7.4) and 3) 10 μL (100 ng) of Human recombinant GST-PI3K (in Hepes 40 mM, pH 7.4, ethylenglycol 4%). After incubation at room temperature for 120 minutes, with gentle agitation, the reaction is stopped by addition of 200 μL of a solution containing 250 μg of neomycin-coated PVT SPA beads, ATP 60 mM and EDTA 6.2 mM in PBS. The assay is further incubated at room temperature for 60 minutes with gentle agitation to allow binding of phospholipids to neomycin-SPA beads. After precipitation of the neomycin-coated PVT SPA beads for 5 minutes at 1500×g, radioactive PtdIns(3)P is quantified by scintillation counting in a Wallac MicroBeta™ plate counter.
The values indicated in Table I below refer to the IC50 (μM) with respect to PI3K, i.e. the amount necessary to achieve 50% inhibition of said target. Said values show a considerable inhibitory potency of quinoxaline compounds with regard to PI3K.
As to `COc1ccc(CO)c(Nc2nc3ccccc3nc2NS(=O)(=O)c2cn(C)cn2)c1` [Example 91, N-(3-{[2-(hydroxymethyl)-5-methoxyphenyl]amino}quinoxalin-2-yl)-1-methyl-1H-imidazole-4-sulfonamide], the 50% inhibitory concentration (IC50) (usually the midpoint of a concentration-inhibition curve) came to 470 nM.

Consider `COc1ccc(CCOC(=O)[C@@H](N)C(C)C)c(Nc2nc3ccccc3nc2NS(=O)(=O)c2cn(C)cn2)c1` [Example 104], for which the IC50 was 100 nM.

With `COc1ccc(CCCO)c(Nc2nc3ccccc3nc2NS(=O)(=O)c2cccc(NC(=O)COCc3ccccc3)c2)c1` [Example 72], the IC50 was determined as 480 nM.

`COCCc1ccc(OC)cc1Nc1nc2ccccc2nc1NS(=O)(=O)c1cn(C)cn1` [Example 62, N-(3-{[5-Methoxy-2-(2-methoxyethyl)phenyl]amino}quinoxalin-2-yl)-1-methyl-1H-imidazole-4-sulfonamide]: the IC50 came to 83 nM.

With `CCCS(=O)(=O)Nc1nc2ccccc2nc1Nc1cc(OC)ccc1CCO` [Example 39, N-(3-{[2-(2-Hydroxyethyl)-5-methoxyphenyl]amino}quinoxalin-2-yl)propane-1-sulfonamide], the IC50 worked out at 44 nM.

Consider `COc1ccc(CCO)c(Nc2nc3ccccc3nc2NS(=O)(=O)c2ccc(NC(=O)CO)cc2)c1` [Example 69, 2-Hydroxy-N-(4-{[(3-{[2-(2-hydroxyethyl)-5-methoxyphenyl]amino}quinoxalin-2-yl)amino]sulfonyl}phenyl)acetamide], for which the IC50 is 65 nM.

On to `COc1ccc(CCCO)c(Nc2nc3ccccc3nc2NS(=O)(=O)C2CCN(C(=O)OCc3ccccc3)CC2)c1` [Example 66, Benzyl 4-{[(3-{[2-(3-hydroxypropyl)-5-methoxyphenyl]amino}quinoxalin-2-yl)amino]sulfonyl}piperidine-1-carboxylate], for which the concentration for half-maximal inhibition (IC50) worked out at 720 nM.

For `COc1ccc(CCCO)c(Nc2nc3ccccc3nc2NS(=O)(=O)c2cn(C)c(CS(C)(=O)=O)n2)c1` [Example 76, N-(3-{[2-(3-Hydroxypropyl)-5-methoxyphenyl]amino}quinoxalin-2-yl)-1-methyl-2-[(methylsulfonyl)methyl]-1H-imidazole-4-sulfonamide], the half-inhibitory concentration (IC50) was determined as 87 nM.

For the molecule `COc1ccc(CCO)c(Nc2nc3ccccc3nc2NS(=O)(=O)c2ccc(NC(=O)CN(C)C)cc2)c1` [Example 70, 2-Dimethylamino-N-(4-{[(3-{[2-(2-hydroxyethyl)-5-methoxyphenyl]amino}quinoxalin-2-yl)]sulfamoyl}phenyl)-acetamide], the concentration for half-maximal inhibition (IC50) stood at 27 nM.

Turning to `COc1ccc(CCO)c(Nc2nc3ccccc3nc2NS(=O)(=O)c2ccc(C#N)cc2)c1` [Example 34], the IC50 stood at 22 nM.

As for `COc1ccc(CC2CCSCC2)c(Nc2nc3ccccc3nc2NS(=O)(=O)c2cn(C)cn2)c1` [Example 25, N-(3-{[5-methoxy-2-(tetrahydro-2H-thiopyran-4-ylmethyl)phenyl]amino}quinoxalin-2-yl)-1-methyl-1H-imidazole-4-sulfonamide], the IC50 turned out to be 100 nM.

As to `COc1ccc(CCCO)c(Nc2nc3ccccc3nc2NS(C)(=O)=O)c1` [Example 46, N-(3-{[2-(3-Hydroxypropyl)-5-methoxyphenyl]amino}quinoxalin-2-yl)methanesulfonamide], the IC50 came to 64 nM.

`COc1ccc(CC2CCC(O)CC2)c(Nc2nc3ccccc3nc2NS(=O)(=O)c2cn(C)cn2)c1` (centres unmarked) [Example 22, N-[3-({2-[(4-hydroxycyclohexyl)methyl]-5-methoxyphenyl}amino)quinoxalin-2-yl]-1-methyl-1H-imidazole-4-sulfonamide]: the IC50 is 18 nM.

Turning to `COc1ccc(CCCN(C)C)c(Nc2nc3ccccc3nc2NS(=O)(=O)c2cn(C)cn2)c1` [Example 31, N-[3-({2-[3-(Dimethylamino)propyl]-5-methoxyphenyl}amino)quinoxalin-2-yl]-1-methyl-1H-imidazole-4-sulfonamide], the IC50 came out at 11 nM.

As to `COc1ccc(CCO)c(Nc2nc3ccccc3nc2NS(=O)(=O)c2ccc(CN3CCC(F)CC3)cc2)c1` [Example 90], the IC50 was determined as 43 nM.

For the molecule `COc1ccc(CC2CCN(C(=O)CN(C)C)CC2)c(Nc2nc3ccccc3nc2NS(=O)(=O)c2cn(C)cn2)c1` [Example 96, N-{3-[(2-{[1-(N,N-dimethylglycyl)piperidin-4-yl]methyl}-5-methoxyphenyl)amino]quinoxalin-2-yl}-1-methyl-1H-imidazole-4-sulfonamide], the IC50 was found to be 100 nM.

Take `COc1ccc(CCCO)c(Nc2nc3ccccc3nc2NS(=O)(=O)c2c(C)noc2C)c1` [Example 42, N-(3-{[2-(3-Hydroxpropyl)-5-methoxyphenyl]amino}quinoxalin-2-yl)-3,5-dimethylisoxazole-4-sulfonamide]: the concentration for half-maximal inhibition (IC50) was determined as 130 nM.

For the molecule `COc1ccc(CCS(C)(=O)=O)c(Nc2nc3ccccc3nc2NS(=O)(=O)c2c(C)noc2C)c1` [Example 54, N-[3-({5-Methoxy-2-[2-(methylsulfonyl)ethyl]phenyl}amino)quinoxalin-2-yl]-3,5-dimethylisoxazole-4-sulfonamide], the concentration for half-maximal inhibition (IC50) is 190 nM.

With `CCS(=O)(=O)Nc1nc2ccccc2nc1Nc1cc(OC)ccc1CCO` [Example 38, N-(3-{[2-(2-Hydroxyethyl)-5-methoxyphenyl]amino}quinoxalin-2-yl)ethanesulfonamide], the IC50 is 60 nM.

`COc1ccc(CC2CCN(C(C)=O)CC2)c(Nc2nc3ccccc3nc2NS(C)(=O)=O)c1` [Example 18]: the IC50 was found to be 170 nM.

As to `COc1ccc(CCCO)c(Nc2nc3ccccc3nc2NS(=O)(=O)c2cn(C)c(CO)n2)c1` [Example 74, 2-(Hydroxymethyl)-N-(3-{[2-(3-hydroxypropyl)-5-methoxyphenyl]amino}quinoxalin-2-yl)-1-methyl-1H-imidazole-4-sulfonamide], the half-inhibitory concentration (IC50) was 84 nM.

As to `COc1ccc(CCCO)c(Nc2nc3ccccc3nc2NS(=O)(=O)c2cn(C)cn2)c1` [Example 28, N-(3-{[2-(3-Hydroxypropyl)-5-methoxyphenyl]amino}quinoxalin-2-yl)-1-methyl-1H-imidazole-4-sulfonamide], the IC50 was 21 nM.

Turning to `COc1ccc(CCS(C)(=O)=O)c(Nc2nc3ccccc3nc2NS(C)(=O)=O)c1` [Example 44, N-[3-({5-Methoxy-2-[2-(methylsulfonyl)ethyl]phenyl}amino)quinoxalin-2-yl]methanesulfonamide], the IC50 worked out at 200 nM.

Turning to `COc1cc(CN(C)C)cc(Nc2nc3ccccc3nc2NS(=O)(=O)c2cn(C)cn2)c1` [Example 95, N-[3-({3-[(Dimethylamino)methyl]-5-methoxyphenyl}amino)quinoxalin-2-yl]-1-methyl-1H-imidazole-4-sulfonamide], the IC50 is 1100 nM.

As to `COc1ccc(CN2CCOCC2)c(Nc2nc3ccccc3nc2NS(=O)(=O)c2cccnc2)c1` [Example 83, N-(3-{[5-methoxy-2-(morpholin-4-ylmethyl)phenyl]amino}quinoxalin-2-yl)pyridine-3-sulfonamide], the half-inhibitory concentration (IC50) came to 72 nM.

As to `COc1ccc(CC2CC(C)(C)N(C)C(C)(C)C2)c(Nc2nc3ccccc3nc2NS(=O)(=O)c2cn(C)cn2)c1` [Example 14, N-[3-({5-methoxy-2-[(1,2,2,6,6-pentamethylpiperidin-4-yl)methyl]phenyl}amino)quinoxalin-2-yl]-1-methyl-1H-imidazole-4-sulfonamide], the IC50 worked out at 420 nM.
